How the values were obtained:
[1] = target: T1, Glutamate-1-semialdehyde aminomutase (GSAM) from Synechococcus (Synechococcus elongatus, UniProt P24630); experiment: half-transamination converting native enzyme into PMP form, followed by gel filtration and absorbance; assay type: biochemical; settings: reaction intermediate, racemic, 5 mM; 100 mM Na-Tricine pH 7.9
T1 construct: gene hemL; homodimer; mobile loop residues 153-181; Trp53 and Trp67

[2] = target: T1, Glutamate-1-semialdehyde aminomutase (GSAM) from Synechococcus; experiment: half-transamination converting native enzyme into PLP form, followed by gel filtration and absorbance; assay type: biochemical; settings: substrate analogue, 20 mM; 100 mM Na-Tricine pH 7.9

T1 sequence (P24630 2-433): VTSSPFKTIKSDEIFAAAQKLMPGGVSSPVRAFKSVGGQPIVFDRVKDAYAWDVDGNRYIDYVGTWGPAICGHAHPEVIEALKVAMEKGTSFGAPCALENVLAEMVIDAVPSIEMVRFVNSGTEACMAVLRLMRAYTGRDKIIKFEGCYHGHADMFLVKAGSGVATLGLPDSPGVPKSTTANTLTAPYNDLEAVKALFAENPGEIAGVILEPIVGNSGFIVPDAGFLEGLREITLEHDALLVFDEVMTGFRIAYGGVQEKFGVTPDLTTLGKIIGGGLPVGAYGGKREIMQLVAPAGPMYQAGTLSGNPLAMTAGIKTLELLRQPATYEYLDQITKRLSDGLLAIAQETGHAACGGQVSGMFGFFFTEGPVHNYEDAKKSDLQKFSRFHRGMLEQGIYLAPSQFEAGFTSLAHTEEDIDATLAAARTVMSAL

Row | SMILES | half-transamination converting native enzyme into PMP form, followed by gel filt [1] | half-transamination converting native enzyme into PLP form, followed by gel filt [2]
1 | NCC(N)CCC(=O)O (racemic) [DAVA, 4,5-diaminovalerate] | the PMP form (PMP-GSAM), obtained by the addition of DAVA | –
2 | O=CCCC(=O)O [succinic semialdehyde] | – | PLP-GSAM), obtained by treating the native enzyme with succinic-1-semialdehyde

Source: publication PMC3747428, “Asymmetry of the Active Site Loop Conformation between Subunits of Glutamate-1-semialdehyde Aminomutase in Solution” (BioMed Research International, 2013)
